Assays:
rice flatsedge (Ci) = test: Test Example 3: herbicidal effects by upland field foliage treatment; assay type: in vivo; design: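 grade of growth control; 5 = at least 90%; 4 = 70 to 90%; 3 = 50 to 70%; 2 = 30 to 50%; 1 = 10 to 30%; 0 = under 10%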
Outline: (§1)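 Using plants cultured for 2 weeks in a greenhouse from seed sown in soil-covered sand (pots 120 cm^2), the compounds were applied to foliage, and weed control was graded by standard criteria 14 days thereafter.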

pale smartweed (Po) [1] = test: as above; assay type: in vivo; design: scale not given here
Outline: as §1

[2] = tested on: common lambsquarters (Ch); test: as above; assay type: in vivo; design: scale not given here
Outline: as §1

Diaitaria ciliaris (Di) = test: as above; assay type: in vivo; design: scale not given here
Outline: as §1

barnyardgrass (Ec) = test: as above; assay type: in vivo; design: scale not given here
Outline: as §1

[3] = tested on: common lambsquarters (Ch); test: Test Example 5: crop plant selectivity by upland field soil treatment (wheat), herbicidal effects; assay type: in vivo; design: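 grade of growth control; 5 = at least 90%; 4 = 70 to 90%; 3 = 50 to 70%; 2 = 30 to 50%; 1 = 10 to 30%; 0 = under 10%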; details: 21st day after application
Outline: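 Upland soil-treatment selectivity test: crop and weed seeds are sown together in sand-filled pots, soil-covered, then treated and grown under glass until rating at 21 days.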

corn (Ze) = test: Test Example 7: crop plant selectivity by upland field soil treatment (corn), phytotoxicity; assay type: in vivo; design: scale not given here; details: 21st day after application
Outline: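 Greenhouse pot test in sand with soil cover over seeds of corn and weeds sown together; scored 21 d after treatment.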

slender amaranth (Am) = test: Test Example 9: crop plant selectivity by upland field foliage treatment (wheat), herbicidal effects; assay type: in vivo; design: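 grade of growth control; 5 = at least 90%; 4 = 70 to 90%; 3 = 50 to 70%; 2 = 30 to 50%; 1 = 10 to 30%; 0 = under 10%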; details: dose 1.6 g ai/10a, 14th day after treatment
Outline: (§2)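 Sand-filled pot, wheat + weeds co-sown; greenhouse 2 wk, then foliage treatment; greenhouse culture continued; visual scoring of weed control and crop injury at 14 d post-treatment per grading scale.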

China jute (Ab) = test: as above; assay type: in vivo; design: scale not given here; details: dose 1.6 g ai/10a, 14th day after treatment
Outline: as §2

pale smartweed (Po) [4] = test: as above; assay type: in vivo; design: scale not given here; details: dose 1.6 g ai/10a, 14th day after treatment
Outline: as §2

[5] = tested on: common lambsquarters (Ch); test: as above; assay type: in vivo; design: scale not given here; details: dose 1.6 g ai/10a, 14th day after treatment
Outline: as §2

wheat (Tr) = test: Test Example 9: crop plant selectivity by upland field foliage treatment (wheat), phytotoxicity; details: dose 1.6 g ai/10a, 14th day after treatment;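 further: grade of crop injury; 5 = at least 90%; 4 = 70 to 90%; 3 = 50 to 70%; 2 = 30 to 50%; 1 = 10 to 30%; 0 = under 10%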
Outline: as §2

[6] = 100 g active ingredient per 10 ares, evaluated 14th day after treatment
[7] = 100 g of the active ingredient per 10 ares, evaluated on the 14th day after treatment

Row | Structure (SMILES) | Herbicidal effects Ci (rice flatsedge (Ci); [6]) | Herbicidal effects Po (pale smartweed (Po) [1]; [6]) | Herbicidal effects Ch [2, 6] | Herbicidal effects Di (Diaitaria ciliaris (Di); [6]) | Herbicidal effects Ec (barnyardgrass (Ec); [6]) | Herbicidal effects Ch ([3]; dose 1.6 g ai/10a) | Phytotoxicity Ze (corn (Ze); dose 1.6 g ai/10a) | Herbicidal effects Ci (rice flatsedge (Ci); [7]) | Herbicidal effects Po (pale smartweed (Po) [1]; [7]) | Herbicidal effects Ch [2, 7] | Herbicidal effects Di (Diaitaria ciliaris (Di); [7]) | Herbicidal effects Ec (barnyardgrass (Ec); [7]) | Phytotoxicity Ze (corn (Ze); dose 6.3 g ai/10a) | Herbicidal effects Am (slender amaranth (Am)) | Herbicidal effects Ab (China jute (Ab)) | Herbicidal effects Po (pale smartweed (Po) [4]) | Herbicidal effects Ch [5] | Phytotoxicity Tr (wheat (Tr)) | Herbicidal effects Ch ([3]; dose 6.3 g ai/10a)
1 | C#CC(C)Oc1cc(-c2cn(C)c(C(F)(F)F)cc2=O)c(F)cc1Cl (racemic) [Compound 6-10] | 5 | 5 | 5 | 5 | 5 | 5 |  |  |  |  |  |  |  |  |  |  |  |  | 
2 | COc1cc(-c2ccc(C(F)(F)F)n(C)c2=O)c(F)cc1Cl [1-15] |  |  |  |  |  | 5 | 1 | 5 | 5 | 5 | 5 | 5 |  |  |  |  |  |  | 
3 | C=CCOc1cc(-c2ccc(C(F)(F)F)n(C)c2=O)c(F)cc1Cl [1-16] |  |  |  |  |  | 5 | 0 | 5 | 5 | 5 | 5 | 5 | 1 | 5 | 5 | 5 | 5 | 2 | 5
4 | C#CC(C)Oc1cc(-c2ccc(C(F)(F)F)n(C)c2=O)c(F)cc1Cl (stereo not shown) [1-17] |  |  |  |  |  | 5 | 1 | 5 | 5 | 5 | 5 | 5 | 1 |  |  |  |  |  | 
5 | C#CCOc1cc(-c2ccc(C(F)(F)F)n(C)c2=O)c(F)cc1Cl [1-18] |  |  |  |  |  | 5 | 1 | 5 | 5 | 5 | 5 | 5 | 2 |  |  |  |  |  | 
6 | Cn1c(C(F)(F)F)ccc(-c2cc(OCC#N)c(Cl)cc2F)c1=O [1-25] |  |  |  |  |  |  |  | 5 | 5 | 5 | 5 | 5 | 1 | 5 | 5 | 5 | 5 | 2 | 
7 | C#CCOc1cc(-c2ccc(C(F)(F)F)n(C)c2=O)c(Cl)cc1Cl [1-30] |  |  |  |  |  | 5 | 1 | 5 | 5 | 5 | 5 | 5 | 2 | 5 | 5 | 5 | 5 | 2 | 
8 | CC(C)Sc1cc(-c2ccc(C(F)(F)F)n(C)c2=O)c(F)cc1Cl [1-43] |  |  |  |  |  |  |  | 5 | 5 | 5 | 5 | 5 | 1 | 5 | 5 | 5 | 5 | 2 | 5
9 | C#CCSc1cc(-c2ccc(C(F)(F)F)n(C)c2=O)c(F)cc1Cl [1-44] |  |  |  |  |  |  |  | 5 | 5 | 5 | 5 | 5 | 1 | 5 | 5 | 5 | 5 | 2 | 5
10 | Cc1cc(-c2ccc(C(F)(F)F)n(C)c2=O)c(F)cc1Cl [1-90] |  |  |  |  |  |  | 1 | 5 | 5 | 5 | 5 | 5 | 2 |  |  |  |  |  | 5
11 | Cn1c(C(F)(F)F)ccc(-c2cc(Cl)c(Cl)cc2F)c1=O [1-136] |  |  |  |  |  | 5 | 1 | 5 | 5 | 5 | 5 | 5 |  |  |  |  |  |  | 5
12 | Cn1c(C(F)(F)F)ccc(-c2cc(OCC(F)(F)F)c(Cl)cc2F)c1=O [1-155] |  |  |  |  |  | 5 | 0 | 5 | 5 | 5 | 5 | 5 | 0 |  |  |  |  |  | 5
13 | CCOCOc1cc(-c2ccc(C(F)(F)F)n(C)c2=O)c(F)cc1Cl [1-181] |  |  |  |  |  |  |  | 5 | 5 | 5 | 5 | 5 |  | 5 | 5 | 5 | 5 | 2 | 5
14 | C=CCN1C(=O)COc2cc(F)c(-c3ccc(C(F)(F)F)n(C)c3=O)cc21 [Compound 2-7] | 5 | 5 | 5 | 5 | 5 | 4 |  |  |  |  |  |  |  |  |  |  |  |  | 
15 | C#CCN1C(=O)COc2cc(F)c(-c3cn(C)c(C(F)(F)F)cc3=O)cc21 [Compound 7-1] | 5 | 5 | 5 | 5 | 5 |  |  |  |  |  |  |  |  | 5 | 5 | 5 | 5 | 2 | 
16 | CON=Cc1cc(-c2ccc(C(F)(F)F)n(C)c2=O)c(F)cc1Cl [Compound No. 1-72, 5-(1-methyl-6-trifluoromethyl-2(1H)-pyridon-3-yl)-2-chloro-4-fluorobenzaldehydeoxime-O-methyl ether] |  |  |  |  |  | 5 | 0 | 5 | 5 | 5 | 5 | 5 |  |  |  |  |  |  | 
17 | Cn1c(C(F)(F)F)ccc(-c2cc(C#N)c(Cl)cc2F)c1=O [Compound No. 1-119, 3-(4-chloro-5-cyano-2-fluorophenyl)-1-methyl-6-trifluoromethyl-2(1H)-pyridone] |  |  |  |  |  |  |  | 5 | 5 | 5 | 5 | 5 | 1 | 5 | 4 | 5 | 5 | 2 | 
18 | C#CCN1C(=O)COc2cc(F)c(-c3ccc(C(F)(F)F)n(C)c3=O)cc21 [Compound No. 2-1, 3-[7-fluoro-2,3-dihydro-4-(2-propynyl)-1,4-benzoxazin-3-on-6-yl]-1-methyl-6-trifluoromethyl-2(1H)-pyridone] | 5 | 5 | 5 | 5 | 5 | 5 |  |  |  |  |  |  |  |  |  |  |  |  | 
19 | C#CCn1c(=O)sc2cc(F)c(-c3ccc(C(F)(F)F)n(C)c3=O)cc21 [Compound No. 3-1, 3-[6-fluoro-3-(2-propynyl)-benzothiazolin-2-on-5-yl]-1-methyl-6-trifluoromethyl-2(1H)-pyridone] | 5 | 5 | 5 | 5 | 5 |  | 2 |  |  |  |  |  | 2 |  |  |  |  |  | 5
20 | COCc1cc2c(-c3ccc(C(F)(F)F)n(C)c3=O)c(F)cc(Cl)c2o1 [Compound No. 4-4, 3-(7-chloro-5-fluoro-2-methoxymethylbenzofuran-4-yl)-1-methyl-6-trifluoromethyl-2-(1H)-pyridone] | 5 | 5 | 5 | 5 | 5 | 5 | 1 |  |  |  |  |  | 2 |  |  |  |  |  | 
21 | Cn1cc(-c2cc(Oc3ccccc3)c(Cl)cc2F)c(=O)cc1C(F)(F)F [Compound No. 6-19, 5-(4-chloro-2-fluoro-5-phenoxyphenyl)-1-methyl-2-trifluoromethyl-4(1H)-pyridone] | 5 | 5 | 5 | 5 | 5 | 5 |  |  |  |  |  |  |  |  |  |  |  |  | 5
